Legend:
[1] = target: STK33 (Homo sapiens, UniProt Q9BYT3); assay: Kinase profiling (Reaction Biology): STK33
[2] = target: RET (Homo sapiens, UniProt P07949); assay: Kinase profiling (Reaction Biology): RET
[3] = target: TESK1 (Homo sapiens, UniProt Q15569); assay: Kinase profiling (Reaction Biology): TESK1
[4] = target: c-MET (Homo sapiens, UniProt P08581); assay: Kinase profiling (Reaction Biology): c-MET
[5] = system: HIV-1(Env); assay type: cell-based
[6] = system: VEEV (TrD); assay type: cell-based, Venezuelan equine encephalitis virus; details: Vero cells, MOI 0.1, 24 h
[7] = system: CXCR4; assay: Surface staining of CXCR4 on CEM-SS T cells; assay type: cell-based, human; details: 100 μM, 1 h
[8] = target: PAK2 (Homo sapiens, UniProt Q13177); assay: Kinase profiling (Reaction Biology): PAK2
[9] = target: JAK3 (Homo sapiens, UniProt P52333); assay: Kinase profiling (Reaction Biology): JAK3
[10] = target: IGF1R (Homo sapiens, UniProt P08069); assay: Kinase profiling (Reaction Biology): IGF1R
[11] = target: RSK1 (Homo sapiens, UniProt Q15418); assay: Kinase profiling (Reaction Biology): RSK1
[12] = target: c-Kit (Homo sapiens, UniProt P10721); assay: Kinase profiling (Reaction Biology): c-Kit
[13] = system: HSV-1; assay: HSV-1 plaque assay in Vero cells; assay type: cell-based, herpes simplex virus 1
[14] = target: PKA (Homo sapiens, UniProt P17612); assay: Kinase profiling (Reaction Biology): PKA
[15] = system: CD4; assay: Surface staining of CD4 on CEM-SS T cells; assay type: cell-based, human; details: 100 μM
[16] = target: ROCK1 (Homo sapiens, UniProt Q13464); assay: Kinase profiling (Reaction Biology): ROCK1
[17] = target: STK16 (Homo sapiens, UniProt O75716); assay: Kinase profiling (Reaction Biology): STK16
STK16, sequence (O75716 whole entry): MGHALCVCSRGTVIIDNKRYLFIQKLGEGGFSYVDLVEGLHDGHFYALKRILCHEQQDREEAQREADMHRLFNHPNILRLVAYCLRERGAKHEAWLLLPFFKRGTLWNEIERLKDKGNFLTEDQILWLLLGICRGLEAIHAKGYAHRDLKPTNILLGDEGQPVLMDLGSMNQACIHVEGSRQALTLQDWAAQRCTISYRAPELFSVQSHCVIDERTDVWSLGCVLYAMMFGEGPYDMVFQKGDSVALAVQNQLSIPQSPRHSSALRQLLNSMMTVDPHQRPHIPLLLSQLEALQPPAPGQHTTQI

[18] = target: PIM2 (Homo sapiens, UniProt Q9P1W9); assay: Kinase profiling (Reaction Biology): PIM2
[19] = system: HIV-1(Env); assay type: cell-based; remark: listed apart in the source
[20] = target: EPHA3 (Homo sapiens, UniProt P29320); assay: Kinase profiling (Reaction Biology): EPHA3
EPHA3, sequence (P29320 21-983): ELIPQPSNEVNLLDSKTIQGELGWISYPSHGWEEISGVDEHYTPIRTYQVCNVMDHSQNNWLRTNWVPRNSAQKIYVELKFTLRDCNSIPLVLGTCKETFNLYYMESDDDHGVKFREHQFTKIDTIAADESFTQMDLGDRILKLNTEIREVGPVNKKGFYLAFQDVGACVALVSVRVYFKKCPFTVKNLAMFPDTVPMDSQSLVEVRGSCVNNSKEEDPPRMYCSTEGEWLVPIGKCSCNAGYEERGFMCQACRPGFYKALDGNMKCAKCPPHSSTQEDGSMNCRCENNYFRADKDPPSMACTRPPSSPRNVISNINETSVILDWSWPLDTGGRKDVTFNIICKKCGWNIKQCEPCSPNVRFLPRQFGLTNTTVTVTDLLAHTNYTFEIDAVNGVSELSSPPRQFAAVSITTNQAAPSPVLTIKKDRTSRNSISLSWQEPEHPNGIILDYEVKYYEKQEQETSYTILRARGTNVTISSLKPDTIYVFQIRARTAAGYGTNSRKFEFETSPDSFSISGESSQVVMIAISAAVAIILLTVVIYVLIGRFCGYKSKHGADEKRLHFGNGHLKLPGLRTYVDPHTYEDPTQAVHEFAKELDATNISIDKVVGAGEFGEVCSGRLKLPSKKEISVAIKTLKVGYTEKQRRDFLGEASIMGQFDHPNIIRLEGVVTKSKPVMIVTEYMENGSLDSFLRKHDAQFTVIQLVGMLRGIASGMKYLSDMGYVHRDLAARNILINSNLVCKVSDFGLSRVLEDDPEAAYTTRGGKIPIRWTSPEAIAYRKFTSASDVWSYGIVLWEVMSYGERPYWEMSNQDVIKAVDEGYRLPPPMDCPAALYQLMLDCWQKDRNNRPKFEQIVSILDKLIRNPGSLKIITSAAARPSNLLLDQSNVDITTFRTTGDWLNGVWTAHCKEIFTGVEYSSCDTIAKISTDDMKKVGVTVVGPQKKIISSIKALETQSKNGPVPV

[21] = target: JNK1 (Homo sapiens, UniProt P45983); assay: Kinase profiling (Reaction Biology): JNK1
[22] = target: CK1d (Homo sapiens, UniProt P48730); assay: Kinase profiling (Reaction Biology): CK1d
[23] = in vitro; details: human
[24] = target: CK2a (Homo sapiens, UniProt P68400); assay: Kinase profiling (Reaction Biology): CK2a
[25] = system: cofilin serine 3 phosphorylation; assay: Western blotting for cofilin serine 3 phosphorylation in CEM-SS T cells; details: 100 μM, time course
[26] = system: HIV-1(Env); assay: 2-LTR circles by real-time PCR (nuclear migration) in CEM-SS T cells; assay type: cell-based
[27] = target: TLK1 (Homo sapiens, UniProt Q9UKI8); assay: Kinase profiling (Reaction Biology): TLK1
[28] = target: EGFR (Homo sapiens, UniProt P00533); assay: Kinase profiling (Reaction Biology): EGFR
[29] = target: LRRK2 (G2019S) (Homo sapiens, UniProt Q5S007, G2019S); assay: Kinase profiling (Reaction Biology): LRRK2 (G2019S)
LRRK2 (G2019S), sequence (Q5S007 whole entry G2019S): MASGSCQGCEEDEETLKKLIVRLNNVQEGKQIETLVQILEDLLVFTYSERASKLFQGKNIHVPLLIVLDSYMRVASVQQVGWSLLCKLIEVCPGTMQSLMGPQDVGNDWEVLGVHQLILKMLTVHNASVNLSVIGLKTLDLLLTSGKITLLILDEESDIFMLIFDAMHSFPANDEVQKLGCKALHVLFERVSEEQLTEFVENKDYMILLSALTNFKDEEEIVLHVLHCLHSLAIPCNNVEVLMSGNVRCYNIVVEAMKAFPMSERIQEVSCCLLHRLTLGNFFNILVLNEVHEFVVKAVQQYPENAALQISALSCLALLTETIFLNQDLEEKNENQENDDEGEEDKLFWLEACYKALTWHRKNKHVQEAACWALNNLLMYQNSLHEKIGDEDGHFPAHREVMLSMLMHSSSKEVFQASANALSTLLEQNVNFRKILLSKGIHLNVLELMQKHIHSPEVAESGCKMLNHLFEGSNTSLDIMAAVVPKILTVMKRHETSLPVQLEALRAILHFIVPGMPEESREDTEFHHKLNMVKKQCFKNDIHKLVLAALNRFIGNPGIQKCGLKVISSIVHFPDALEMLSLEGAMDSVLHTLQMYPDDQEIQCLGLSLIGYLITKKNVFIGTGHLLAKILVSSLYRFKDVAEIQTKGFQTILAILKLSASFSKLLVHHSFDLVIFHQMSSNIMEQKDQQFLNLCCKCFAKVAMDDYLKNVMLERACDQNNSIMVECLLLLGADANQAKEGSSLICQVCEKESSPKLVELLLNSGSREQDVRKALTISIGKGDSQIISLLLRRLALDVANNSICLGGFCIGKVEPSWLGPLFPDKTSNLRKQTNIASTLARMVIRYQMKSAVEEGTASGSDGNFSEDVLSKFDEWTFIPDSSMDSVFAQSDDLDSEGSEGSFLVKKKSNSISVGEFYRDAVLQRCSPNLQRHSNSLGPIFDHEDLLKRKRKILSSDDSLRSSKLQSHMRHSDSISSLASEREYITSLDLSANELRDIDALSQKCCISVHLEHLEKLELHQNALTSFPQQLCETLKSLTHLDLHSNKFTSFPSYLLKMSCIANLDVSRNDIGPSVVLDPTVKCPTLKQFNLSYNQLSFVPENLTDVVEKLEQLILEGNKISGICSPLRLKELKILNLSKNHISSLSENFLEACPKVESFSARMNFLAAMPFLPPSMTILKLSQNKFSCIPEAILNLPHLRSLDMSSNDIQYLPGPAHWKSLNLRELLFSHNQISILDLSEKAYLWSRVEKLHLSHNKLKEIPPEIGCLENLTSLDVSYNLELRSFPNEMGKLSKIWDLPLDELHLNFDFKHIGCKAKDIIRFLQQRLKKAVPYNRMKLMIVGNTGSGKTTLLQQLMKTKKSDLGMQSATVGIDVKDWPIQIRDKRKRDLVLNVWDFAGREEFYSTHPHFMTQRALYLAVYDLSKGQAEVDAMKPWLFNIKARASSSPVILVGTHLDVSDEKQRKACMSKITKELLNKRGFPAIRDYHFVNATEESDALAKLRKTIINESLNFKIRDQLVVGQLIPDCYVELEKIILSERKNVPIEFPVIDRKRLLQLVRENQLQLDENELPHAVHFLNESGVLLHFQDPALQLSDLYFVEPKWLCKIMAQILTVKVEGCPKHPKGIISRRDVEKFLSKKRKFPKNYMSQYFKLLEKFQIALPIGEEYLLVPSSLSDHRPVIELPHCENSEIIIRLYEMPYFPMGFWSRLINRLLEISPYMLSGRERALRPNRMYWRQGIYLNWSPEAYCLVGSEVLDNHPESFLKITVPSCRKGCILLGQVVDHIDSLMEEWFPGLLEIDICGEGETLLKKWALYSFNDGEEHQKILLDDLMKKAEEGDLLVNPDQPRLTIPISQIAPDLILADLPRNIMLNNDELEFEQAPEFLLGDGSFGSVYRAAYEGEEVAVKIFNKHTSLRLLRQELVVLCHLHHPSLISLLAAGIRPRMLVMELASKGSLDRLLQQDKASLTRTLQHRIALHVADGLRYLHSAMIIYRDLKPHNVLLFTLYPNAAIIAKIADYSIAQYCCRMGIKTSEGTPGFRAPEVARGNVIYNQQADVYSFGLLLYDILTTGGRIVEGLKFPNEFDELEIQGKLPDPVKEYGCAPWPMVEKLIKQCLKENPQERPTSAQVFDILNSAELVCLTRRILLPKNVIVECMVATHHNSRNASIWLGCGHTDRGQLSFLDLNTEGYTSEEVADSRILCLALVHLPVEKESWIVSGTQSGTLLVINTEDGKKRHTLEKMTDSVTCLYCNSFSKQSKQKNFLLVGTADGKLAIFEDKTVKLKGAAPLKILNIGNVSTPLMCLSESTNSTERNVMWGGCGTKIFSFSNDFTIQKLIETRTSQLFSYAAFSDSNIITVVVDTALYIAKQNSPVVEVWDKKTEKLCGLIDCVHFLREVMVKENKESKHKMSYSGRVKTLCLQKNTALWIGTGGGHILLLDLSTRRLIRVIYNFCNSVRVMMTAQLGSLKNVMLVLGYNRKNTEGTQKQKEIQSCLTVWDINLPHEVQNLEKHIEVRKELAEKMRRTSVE

[30] = system: RVFV-Luc (MP12); assay: microbe, parasite or virus in culture; assay type: cell-based; details: Rift Valley fever virus, Vero, 24 h, read-out: IC50, inhibition of RVFV
[31] = target: AMPK(A1/B1/G1) (Homo sapiens, UniProt Q13131); assay: Kinase profiling (Reaction Biology): AMPK(A1/B1/G1)
[32] = target: TAOK1 (Homo sapiens, UniProt Q7L7X3); assay: Kinase profiling (Reaction Biology): TAOK1
[33] = target: LIMK1 (Homo sapiens, UniProt P53667); assay: Kinase profiling (Reaction Biology): LIMK1
[34] = system: HIV-1(Nef-luciferase); assay: Nef-luciferase-based viral entry assay; assay type: cell-based; details: 100 μM; data not shown
[35] = target: TAK1 (Homo sapiens, UniProt O43318); assay: Kinase profiling (Reaction Biology): TAK1
[36] = target: PDGFRb (Homo sapiens, UniProt P09619); assay: Kinase profiling (Reaction Biology): PDGFRb
PDGFRb, sequence (P09619 33-1106): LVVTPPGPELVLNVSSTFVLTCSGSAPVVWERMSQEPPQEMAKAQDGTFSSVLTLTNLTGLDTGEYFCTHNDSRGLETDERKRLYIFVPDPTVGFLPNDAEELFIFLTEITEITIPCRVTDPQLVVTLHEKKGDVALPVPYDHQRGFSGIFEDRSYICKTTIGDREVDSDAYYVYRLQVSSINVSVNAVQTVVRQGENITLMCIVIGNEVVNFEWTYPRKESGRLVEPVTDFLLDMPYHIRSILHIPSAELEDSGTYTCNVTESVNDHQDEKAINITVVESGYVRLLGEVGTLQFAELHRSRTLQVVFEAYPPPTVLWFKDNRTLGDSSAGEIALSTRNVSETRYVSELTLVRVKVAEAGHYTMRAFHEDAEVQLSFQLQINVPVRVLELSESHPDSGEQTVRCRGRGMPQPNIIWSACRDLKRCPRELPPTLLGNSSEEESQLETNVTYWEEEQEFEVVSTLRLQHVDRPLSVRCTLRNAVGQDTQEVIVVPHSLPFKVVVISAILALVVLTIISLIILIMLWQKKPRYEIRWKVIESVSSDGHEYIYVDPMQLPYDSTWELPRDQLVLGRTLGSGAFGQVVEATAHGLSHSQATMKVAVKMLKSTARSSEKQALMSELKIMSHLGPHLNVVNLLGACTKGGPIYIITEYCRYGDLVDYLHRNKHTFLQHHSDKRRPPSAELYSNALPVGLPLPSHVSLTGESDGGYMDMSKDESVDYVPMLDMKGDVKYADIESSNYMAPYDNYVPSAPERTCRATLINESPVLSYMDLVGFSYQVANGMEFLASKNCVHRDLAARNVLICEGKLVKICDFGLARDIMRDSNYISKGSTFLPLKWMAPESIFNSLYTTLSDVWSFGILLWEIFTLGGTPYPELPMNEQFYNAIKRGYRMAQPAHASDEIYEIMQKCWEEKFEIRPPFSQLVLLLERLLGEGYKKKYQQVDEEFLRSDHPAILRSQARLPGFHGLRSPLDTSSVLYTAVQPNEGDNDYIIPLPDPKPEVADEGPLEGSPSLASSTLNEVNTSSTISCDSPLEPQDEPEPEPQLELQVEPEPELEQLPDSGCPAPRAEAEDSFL

[37] = target: PLK2 (Homo sapiens, UniProt Q9NYY3); assay: Kinase profiling (Reaction Biology): PLK2
[38] = target: ABL1 (Homo sapiens, UniProt P00519); assay: Kinase profiling (Reaction Biology): ABL1

Q: Which results are given for `COC(=O)c1ccc2[nH]c(C3CCN(c4ncnc5[nH]cc(Cl)c45)CC3)nc2c1` [Compound R10015, Methyl 2-(1-(5-chloro-7H-pyrrolo[2,3-d]pyrimidin-4-yl)piperidin-4-yl)-1H-benzo[d]imidazole-5-carboxylate]?
A: activity at 1 µM [1]: 56.5%; activity at 1 µM [2]: 46.5%; activity at 1 µM [3]: 90.2%; activity at 1 µM [4]: 82.1%; viral late DNA synthesis [5]: inhibited; inhibition of VEEV (TrD) [6]: 2 log units; surface expression of CXCR4 [7]: did not alter; activity at 1 µM [8]: 98.2%; activity at 1 µM [9]: 61.1%; activity at 1 µM [10]: 90%; activity at 1 µM [11]: 47.2%; activity at 1 µM [12]: 81.3%; inhibition of HSV-1 (viral plaques) [13]: inhibition; activity at 1 µM [14]: 24%; inhibition at 1 µM ([14]; read-out: inhibition of protein kinase A (PKA)): ~76%; surface expression of CD4 ([15]; 1 h): did not alter; surface density of CD4 ([15]; prolonged treatment 4 h): slightly decreased; activity at 1 µM [16]: 42.3%; activity at 1 µM [17]: 48.6%; activity at 1 µM [18]: 97.6%; p24 release (virion release) [19]: inhibited; activity at 1 µM [20]: 91.1%; activity at 1 µM [21]: 95.2%; activity at 1 µM [22]: 85%; viability at 100 µM [23]: 89.2%; activity at 1 µM [24]: 94.2%; cofilin serine 3 phosphorylation [25]: drastic inhibition; viral nuclear migration (2-LTR circles) [26]: inhibited; activity at 1 µM [27]: 98.5%; activity at 1 µM [28]: 93.2%; activity at 1 µM [29]: 6.7%; inhibition at 1 µM ([29]; read-out: inhibition of LRRK2): ≥ 90%; IC50 [30]: ~12.5 µM; activity at 1 µM [31]: 76.6%; activity at 1 µM [32]: 54%; activity at 1 µM [33]: 6.4%; viral entry, HIV-1(Nef-luciferase) [34]: did not significantly inhibit; activity at 1 µM [35]: 82.4%; activity at 1 µM [36]: 78.6%; activity at 1 µM [37]: 103%; activity at 1 µM [38]: 89.2%
